Here are results for 1 compound from patent US20180360025A1, “ARTICLE OF MANUFACTURE AND METHODS FOR INCREASING SURVIVAL OF RED BLOOD CELLS” (Ramot at Tel-Aviv University Ltd., priority 2015, published 2018).

Structures are written as SMILES.

For the test, the system named is CytoD-treated RBC. The test is described as follows: Recovery of CytoD-treated RBCs (Wright Giemsa stain and immunofluorescence). The following applies: CytoD 3 h, immunofluorescence. It counts as cell-based, human. The procedure:
Cytochalasin D (CytoD) is known to inhibit actin polymerization or depolymerization at barbed ends. The recovery effects of Wnts CM in RBCs was tested after incubation with CytoD in order to evaluate the potential effect of Wnt3/5 on polymerized actin in RBCs (FIGS. 12A-B). As show in FIGS. 12A-B, RBCs incubated with a medium containing Cyto D for 3 h, and then with Wnt 3/5 CM (in the absence of CytoD) for 6 h, were stained using two different methods. […] (FIG. 12B).

In the case of `C=C1[C@@H](C)[C@H]2[C@H](Cc3ccccc3)NC(=O)[C@]23[C@H](OC(C)=O)/C=C/[C@@](C)(O)C(=O)[C@@H](C)C/C=C/[C@H]3[C@@H]1O` [CytoD, Cytochalasin D], the “actin state in RBCs after CytoD treatment” value is on record as “aggregates of cytoplasm actin”.
